Measured values published in US20100261751A1, “METHOD FOR D[…] OF THE TWO HUMAN IMMUNODEFICIENCY VIRUS (HIV) INTEGRASE ENZYMATIC […]” (priority 2007, published 2010).

Biological target: T1, HIV integrase (Human immunodeficiency virus type 1 group M subtype B, UniProt P04585)
T1 construct: stored proteins (integrase, wt, 49 μM in)
Test: 3dQ assay: HIV integrase 3′-end processing fluorescence in vitro assay
Format: biochemical
Settings: dose response, FIG. 1

T1 sequence (O75475 whole entry, other chains not shown): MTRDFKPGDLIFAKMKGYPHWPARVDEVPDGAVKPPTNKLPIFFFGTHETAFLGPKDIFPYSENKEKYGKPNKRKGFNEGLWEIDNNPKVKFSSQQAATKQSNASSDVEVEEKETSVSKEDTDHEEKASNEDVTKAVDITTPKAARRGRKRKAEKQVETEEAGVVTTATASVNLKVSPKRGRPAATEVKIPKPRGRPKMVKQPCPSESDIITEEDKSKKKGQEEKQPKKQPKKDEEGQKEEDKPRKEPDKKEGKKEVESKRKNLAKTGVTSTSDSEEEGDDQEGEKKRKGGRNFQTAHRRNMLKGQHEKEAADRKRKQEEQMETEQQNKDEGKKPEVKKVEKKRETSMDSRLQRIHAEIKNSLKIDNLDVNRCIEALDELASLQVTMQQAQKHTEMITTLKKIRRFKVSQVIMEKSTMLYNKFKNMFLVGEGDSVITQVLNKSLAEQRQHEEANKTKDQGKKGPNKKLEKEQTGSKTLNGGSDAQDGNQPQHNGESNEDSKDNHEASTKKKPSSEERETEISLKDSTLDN

## O=C(O)C(=O)CC(=O)c1cccn1Cc1ccc(F)cc1 [L731,988]
  inhibition of 3′-end processing (result in words): only showed a weak response
